Drawing on PubChem BioAssay AID1645867 (Buhrlage Lab, Dana-Farber Cancer Institute and Novartis …, 2021), this text covers IC50 for 79 molecules.

As a reminder, the IC50 is the concentration that inhibits the measured activity by half.

Activity calls are given as the source filed them. No rule for the calls is given here. Where only a bound is given, the exact number is not on record here.

Chain of Ubiquitin carboxyl-terminal hydrolase isozyme L1 (Homo sapiens) (P09936 whole entry, looked up): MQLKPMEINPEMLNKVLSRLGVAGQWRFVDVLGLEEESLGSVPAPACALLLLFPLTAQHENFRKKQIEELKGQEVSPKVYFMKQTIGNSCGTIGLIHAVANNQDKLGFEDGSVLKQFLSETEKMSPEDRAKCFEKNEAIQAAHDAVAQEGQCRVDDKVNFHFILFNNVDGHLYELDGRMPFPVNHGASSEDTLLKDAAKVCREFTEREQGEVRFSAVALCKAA

The experiment addresses Ubiquitin carboxyl-terminal hydrolase isozyme L1 (Homo sapiens) (UniProt P09936). In words: UCH-L1 deubiquitylase inhibitors, biochemical concentration-response, hit retest (AID 1645867). The following applies: recombinant UCHL1 deubiquitinase activity assay.
`O=C(Cn1c(COc2ccccc2)nc2ccccc21)Nc1cc(Cl)cc(Cl)c1`: the IC50 is > 25 µM (inactive).

With `N#CCCN(C(=O)c1cc2c(s1)-c1ccccc1OC2)c1ccccc1`, the IC50 was > 25 µM (inactive).

Regarding `CN(Cc1ccccc1)S(=O)(=O)c1ccc2[nH]c(=O)[nH]c2c1`, the IC50 is > 25 µM (inactive).

With `O=C(Cc1c[nH]c2ccccc12)N1CCc2cc(-c3ccno3)ccc21`, the IC50 was > 25 µM (inactive).

Regarding `C=C1CCC2[C@](C)(CCC[C@]2(C)C(=O)OC)[C@H]1CCc1ccoc1/C=C/C(=O)O` (some centres undefined), the IC50 is > 25 µM (inactive).

Regarding `N#Cc1ccc(COC(=O)C(O)(c2ccccc2)c2ccccc2)cc1`, the IC50 is > 25 µM (inactive).

For `CCOc1ccc(CC(=O)Nc2ccc(-c3cn4cccnc4n3)cc2)cc1`, the IC50 was > 25 µM (inactive).

As for `Cc1nnc(-c2ccc3ccn(CC(=O)N4CCN(c5ccccc5)CC4)c3c2)o1`, the IC50 is > 25 µM (inactive).

Turning to `O=C1CC(c2ccc(F)cc2)CC2=C1C(c1cccc([N+](=O)[O-])c1)Nc1ccccc1N2` (centres undefined), the IC50 was > 25 µM (inactive).

Consider `COc1ccc(NC(=O)Cn2c(C)cc(=O)n3nc(-c4cccc(C)c4)nc23)cc1`, for which the IC50 is > 25 µM (inactive).

Consider `COc1ccc(C(=O)COC(=O)c2ccccc2NS(=O)(=O)c2ccc(O)c([N+](=O)[O-])c2)cc1`, for which the IC50 was > 25 µM (inactive).

Regarding `COc1ccc2nc(N3CCN(C(=O)C4CCCCC4)CC3)sc2c1`, the IC50 is > 25 µM (inactive).

As to `Cc1ccc2nc(CCc3ccc(NS(=O)(=O)c4ccc(F)c(Cl)c4)cc3)[nH]c2c1`, the IC50 was > 25 µM (inactive).

Consider `O=C(COc1ccc(Cl)cc1Cl)Nc1ccc2[nH]c(=O)[nH]c2c1`, for which the IC50 is > 25 µM (inactive).

Consider `N#C/C(=C\c1ccc(OCc2cccc(C(=O)O)c2)cc1)c1ccc(F)cc1`, for which the IC50 was > 25 µM (inactive).

Consider `CCOc1ccc(NC(=O)Cn2c(=O)n(CCCCCC(=O)NCc3ccc(F)cc3)c(=O)c3sccc32)cc1`, for which the IC50 is > 25 µM (inactive).

On to `Fc1cc(F)c2[nH]cc(-c3nnnn3-c3ccc4ccccc4c3)c2c1`, for which the IC50 is > 25 µM (inactive).

On to `O=c1oc2ccccc2cc1-c1nc(-c2ccc(Oc3ccccc3)cc2)cs1`, for which the IC50 is > 25 µM (inactive).

As for `CC(C)c1cc(C2CCCN2C(=O)Cc2ccc(Cl)cc2)no1` (centres undefined), the IC50 is > 25 µM (inactive).

On to `Cc1nn(-c2ccc(F)cc2)c(C)c1S(=O)(=O)N1CCN(c2ncccn2)CC1`, for which the IC50 was > 25 µM (inactive).

As to `O=C(Nc1c(C(=O)N2CCCCCC2)oc2ccccc12)C1CCCC1`, the IC50 was > 25 µM (inactive).

For the molecule `CCCn1c(=O)c(-c2ccc(C(=O)NCc3ccc(OC)cc3)cc2)nc2cccnc21`, the IC50 is > 25 µM (inactive).

As to `CC(C)Cc1ccc(-c2cc(-c3ccc(C(F)(F)F)cc3)c(C#N)c(=O)[nH]2)cc1`, the IC50 is > 25 µM (inactive).

Turning to `O=C(CN1CC(=O)c2ccccc2S1(=O)=O)Nc1ccccc1`, the IC50 is > 25 µM (inactive).

With `Cc1nn(-c2ccc(Cl)cc2)c2[nH]c(=O)c(CNc3ccc4c(c3)OCCO4)cc12`, the IC50 was > 25 µM (inactive).

Take `Cc1ccc(C)c(Cn2cnc3c(nnn3-c3cccc(F)c3)c2=O)c1`: the IC50 was > 25 µM (inactive).

In the case of `COC1=C(C2=C(OC)C(=O)c3cc4c(c(O)c3C2=O)C(=O)OC(C)C4)C(=O)c2c(cc3c(c2O)C(=O)OC(C)C3)C1=O` (centres undefined), the IC50 was 11.9 µM.

Regarding `COC(=O)c1ccc2c(=O)n(CCCCCC(=O)NCCc3ccc(S(N)(=O)=O)cc3)c(=O)[nH]c2c1`, the IC50 is > 25 µM (inactive).

As for `COc1ccccc1N/C=C/c1onc(-c2c(F)cccc2Cl)c1C#N`, the IC50 is > 25 µM (inactive).

For the molecule `Cc1ccc2[nH]c3c(=O)n(Cc4ccc(N(C)C)cc4)cnc3c2c1`, the IC50 was > 25 µM (inactive).

As to `CCOc1ccc(-n2ccnc(SCC(=O)Nc3ccccc3Cl)c2=O)cc1`, the IC50 was > 25 µM (inactive).

For the molecule `CC(c1ccccc1)N1CC(O)=C(c2nc3ccccc3s2)C1=N` (centres undefined), the IC50 is > 25 µM (inactive).

As for `O=C1NC2(CCCc3ccccc32)C(=O)N1Cc1csc(-c2ccccc2)n1` (centres undefined), the IC50 is > 25 µM (inactive).

Take `O=c1c2cnc(N3CCCCC3)nc2ccn1CCc1ccccc1`: the IC50 is > 25 µM (inactive).

In the case of `O=C(NCc1ccco1)c1ccc(Cn2c(SCc3ccccc3)nc3ccncc32)cc1`, the IC50 is > 25 µM (inactive).

For the molecule `CCc1ccc(NC(=O)C2CCN(c3nc4nc[nH]c(=O)c4s3)CC2)cc1`, the IC50 was > 25 µM (inactive).

Consider `COc1cc(OC)cc(N2C(=O)N(CC(=O)c3ccc(Br)cc3)c3ccccc3S2(=O)=O)c1`, for which the IC50 is > 25 µM (inactive).

Take `O=C(Nc1cccc(-c2nc3cnccc3o2)c1)c1ccc(Br)o1`: the IC50 is > 25 µM (inactive).

Regarding `Cc1cc(OCC(=O)Nc2ccc3c(c2)NC(=O)CO3)ccc1Cl`, the IC50 is > 25 µM (inactive).

With `COc1ccc(CNC(=O)CCCc2nnc3c(=O)n(-c4cc(C)cc(C)c4)ccn23)cc1`, the IC50 is > 25 µM (inactive).

For the molecule `O=C(COc1ccc(Cl)cc1)Nc1noc(-c2cccs2)n1`, the IC50 was > 25 µM (inactive).

With `O=c1c(-c2nc(-c3ccncc3)no2)cccn1Cc1c(F)cccc1Cl`, the IC50 is > 25 µM (inactive).

Take `CSc1ncccc1C(=O)NC1(O)C(=O)c2ccccc2C1=O`: the concentration for half-maximal inhibition (IC50) is 18.3 µM.

Consider `O=C(CSc1ccc(-c2cccc([N+](=O)[O-])c2)nn1)Nc1cccc(F)c1`, for which the IC50 is > 25 µM (inactive).

For the molecule `O=[N+]([O-])c1ccc(C(O)CN2CCN(Cc3ccccc3)CC2)cc1` (centres undefined), the IC50 is > 25 µM (inactive).

As to `COc1ccc2c(CNCCC3=CCCCC3)c(C(=O)O)n(Cc3ccc(F)cc3)c2c1`, the IC50 is > 25 µM (inactive).

With `Cn1c(=O)c2c3c(cnc2n(C)c1=O)C(=O)CC(c1ccccc1)C3` (centres undefined), the IC50 is > 25 µM (inactive).

On to `CCOc1ccccc1NC(=O)Cn1c(=O)n(CCCC(=O)NCc2ccc(C)cc2)c(=O)c2sccc21`, for which the IC50 is > 25 µM (inactive).

Take `Cc1ccc(NC(=O)c2nnn(CC(=O)Nc3cccc(C)c3C)c2N)cc1C`: the IC50 is > 25 µM (inactive).

With `CCCc1ccc(C(=O)[C@@H]2[C@@H](C(=O)c3cccs3)N3c4ccc(C)cc4C(C)=C[C@@H]3[C@@]23C(=O)Nc2ccccc23)cc1`, the IC50 was > 25 µM (inactive).

In the case of `Cc1c(Cl)ccc2sc(N3CCN(C(=O)c4ccn(C)n4)CC3)nc12`, the IC50 was > 25 µM (inactive).

With `N#Cc1cccc(NC(=O)Nc2cccn(Cc3ccccc3F)c2=O)c1`, the half-maximal inhibitory concentration (IC50) was 17.1 µM.

Turning to `CN(c1ccccc1)S(=O)(=O)c1ccc(C(=O)Nc2cccc(C#N)c2)cc1`, the IC50 is > 25 µM (inactive).

As for `COc1ccc(OC)c(C2=NO[C@]3(C(=O)Nc4ccccc43)[C@H]2C(=O)c2ccc(OC)c(OC)c2)c1`, the IC50 was > 25 µM (inactive).

Take `CN(C)CCN1C(=O)c2cc3occc3n2CC1(C)C(=O)NC1CCCCCC1` (centres undefined): the IC50 was > 25 µM (inactive).

`CC(C)(C)n1ncc2c(=O)n(CC(=O)N3CCCc4ccccc43)cnc21`: the IC50 is > 25 µM (inactive).

Turning to `COc1cc(NC(=O)Cn2cc(C(=O)c3ccccc3)c(=O)c3cc(Cl)ccc32)cc(OC)c1`, the IC50 was > 25 µM (inactive).

Consider `CCOC(=O)c1ccc(Oc2sccc2[N+](=O)[O-])cc1`, for which the IC50 was > 25 µM (inactive).

Consider `O=C(Nc1nc2ccccc2s1)C1CC(=O)N(c2ccccc2)C1` (centres undefined), for which the IC50 is > 25 µM (inactive).

For the molecule `Cc1ccc(C2CC(=O)C3=C(C2)Nc2ccccc2N(C(=O)c2ccccc2)C3c2ccccc2)cc1` (centres undefined), the IC50 was > 25 µM (inactive).

Consider `CCC1OC(O)(C(C)C(O)C(C)C2OC(=O)/C(C)=C/C(C)=CC(C)C(O)C(C)C/C(C)=C/C=C/C2OC)CC(OC(=O)/C=C/C(=O)NC2=C(O)CCC2=O)C1C` (centres undefined), for which the IC50 is > 25 µM (inactive).

For `CN(C)[C@@H]1C(=O)C(C(N)=O)=C(O)[C@@]2(O)C(=O)C3=C(O)c4c(O)cccc4[C@@](C)(O)[C@H]3C[C@@H]12`, the IC50 was > 25 µM (inactive).

Regarding `COc1c(O)cc(CC(=O)O)c(C(C)=O)c1O`, the IC50 is 9.26 µM.

Consider `O=C(COc1ccc(N2CC(C(=O)NCc3ccccc3)CC2=O)cc1)Nc1ccc(F)cc1` (centres undefined), for which the IC50 is > 25 µM (inactive).

For the molecule `CCc1cccc(C)c1NC(=O)Cn1nc2ccc(C(=O)NCc3ccccc3)cn2c1=O`, the IC50 is > 25 µM (inactive).

`Cc1ccc(/C=C/C(=O)c2oc3ccc(F)cc3c2C)cc1`: the IC50 is > 25 µM (inactive).

Turning to `COc1ccc(C(=O)Nc2nnc(S(=O)(=O)N3CCCc4ccccc43)s2)cc1OC`, the IC50 was > 25 µM (inactive).

As for `Cc1ccc(NC(=O)c2cc(-c3ccccn3)nc3c(Cl)cccc23)nc1`, the IC50 is > 25 µM (inactive).

Turning to `O=C(COc1ccc(N2CC(C(=O)NCc3ccc4c(c3)OCO4)CC2=O)cc1)Nc1ccc(Cl)cc1` (centres undefined), the IC50 is > 25 µM (inactive).

As for `O=c1[nH]c(=O)n(Cc2ccccc2)c2c1CN(CCc1ccccc1)CN2`, the IC50 was > 25 µM (inactive).

As to `CC1(C)Cc2nc(N3CCCC3)c(C#N)cc2CS1`, the IC50 is > 25 µM (inactive).

For `COc1ccc(OCC(=O)N(Cc2cccc3ccccc23)c2ccccn2)cc1`, the IC50 is > 25 µM (inactive).

For `CC[C@@H](C(=O)[C@@H](C)[C@@H](O)[C@H](C)CCc1ccc(C)c(O)c1C(=O)O)[C@@H]1O[C@](CC)([C@H]2CC[C@](O)(CC)[C@H](C)O2)C[C@@H]1C`, the IC50 was > 25 µM (inactive).

`Cc1ccc(NC(=O)Cn2cc(C(=O)c3ccccc3)c(=O)c3cc(C)ccc32)cc1`: the IC50 is > 25 µM (inactive).

Turning to `Cc1ccc(Cn2c(C(=O)O)c(CNCc3cccnc3)c3ccccc32)cc1`, the IC50 was > 25 µM (inactive).

Regarding `O=C(NCc1ccc(Br)cc1)c1cc(-c2cccnc2)n[nH]1`, the IC50 was > 25 µM (inactive).

For `O=C(Nc1c(C(=O)N2CCCCCC2)oc2ccccc12)C1CCCCC1`, the IC50 is > 25 µM (inactive).

Take `NC(=O)C1(N2CCCCC2)CCN(CC(=O)Nc2cc(Cl)ccc2Cl)CC1`: the IC50 is > 25 µM (inactive).

`CC(C)CC[C@H]1O[C@@H](CC(=O)O)Cc2cc3c(c(O)c21)C(=O)c1sc(=O)n(C)c1C3=O`: the IC50 was > 25 µM (inactive).
